The source of these data is patent US20240335539A1, “MODULATION OF BCL-2 TO ENHANCE CHIMERIC ANTIGEN RECEPTOR CANCER IMMUNOTHERAPY EFFICACY” (The Trustees of the University of Pennsylvania, priority 2021, published 2024).

Data set [1] concerns MINO. Description: Venetoclax-mediated killing, bioluminescence cytotoxicity assay, 48 hours. It counts as cell-based. The method, then:
(§1) FIGS. 2A-2F illustrate the finding that venetoclax and CART19 as a single agent induces concentration- and dose-dependent tumor killing. Luciferase-expressing cancer cells (5×10^4 cells/well) were co-cultured with either various concentrations of venetoclax or different doses of CART19 for 48 hours and luminescence was used to quantify the tumor killing. After 48 hours, luciferin was added to the cells and luminescence was detected using a luminometer (Biotek Synergy H4). Tumor killing (%) was calculated using the formula: (sample−maximal tumor growth)/(lysis control−maximal tumor growth)×100. […] E:T=ratio of effector to target. EC50: Half-maximal effective concentration. CART19: anti-CD19 CAR T cell.
(§2) Cell lines (MINO, Z-138, MAVER, OCI-Ly18, SU-DHL-4, NALM6, MOLM-14 and KG-1) were engineered to express click beetle green, and cell survival was measured using bioluminescence quantification. D-luciferin potassium salt (Perkin-Elmer) was added to cell cultures (final concentration 15 μg/mL) and incubated at 37° C. for 10 minutes. Bioluminescence signal was detected using a BioTek Synergy H4 imager, and signal was analyzed using BioTek Gen5 software. Percent specific lysis was calculated using a control of target cells without effectors. Cytotoxicity assays were established as previously described (Singh, et al., Cancer Discovery 2020; 10(4):552-67) with the addition of vehicle or venetoclax.
(§3) CART19 cells were co-cultured with either vehicle (DMSO) or venetoclax and cytotoxicity was measured at 48 hours. […] This effect was further confirmed using primary NHL cells (MCL) (FIG. 1D). […] Furthermore, to confirm the importance of the BCL-2 pathway in resistance to CART killing, overexpression of BCL-2 was induced in B-cell lymphoma and leukemia cell lines (MINO, SU-DHL-4, and NALM-6) that lack genetic alterations of BCL-2. BCL-2 overexpression led to a significant reduction of tumor killing by CART cell in all models, in particular the venetoclax medium sensitive model (MINO) (FIGS. 4A-4C).

In data set [2] the test system is NALM6. The data set is described as above. Format: cell-based. Conditions: Homo sapiens, NALM-6, read-out: half-maximal inhibitory concentration (IC50). The method, then: as §1, §2, §3
A further data set deals with OCI-Ly18. The description is as above. Particulars: Homo sapiens, read-out: half-maximal inhibitory concentration (IC50). Format: cell-based. The method, then: as §1, §2, §3
Data set [3] relates to MINO. Description: MINO xenograft model. Conditions: venetoclax 50 mg/Kg.
Description: For the MINO model, CART cells (5×10^4) were infused 14 days after luciferase+MINO cells were implanted (i.v. injection). […] Either vehicle or venetoclax (50 mg/kg/daily) was administrated for 5 weeks via oral gavage. […] All data represent mean±SD.
CART cells (5×10^4) were infused 14 days after luciferase+MINO cell i.v. injection. […] All data represent mean±SD. One-way ANOVA with posthoc Tukey tests was performed for all comparisons.
Six- to 10-week-old NOD SCID γ chain −/− (NSG) mice were obtained from the Stem Cell & Xenograft Core at the University of Pennsylvania and maintained in pathogen-free conditions. […] For the systemic tumor model, 1×10^6 of either NALM6 or MINO were administrated to NSG mice by tail vein injection.
The subject of data set [4] is NALM6. Put plainly: NALM6 xenograft model. It counts as in vivo. Conditions: CART19 with or without venetoclax 100 mg/kg daily, oral gavage for five weeks. On the procedure:
Either venetoclax (100 mg/kg) or vehicle were administered to the mice via oral gavage daily. To monitor the survival of CART in vivo, mouse blood ([…]) was collected from submandibular vein of mouse on day 15 after CART infusion and measured the absolute number of human CD3+ T cells in mouse blood using flow cytometry. Tumor volume was monitored by measuring luminescen intensity in mouse by IVIS system. […] One-way ANOVA with post-hoc Tukey test was performed. […] All data represent mean±SD. *P<0.05. ns: not significant. UTD: untransduced T cell. CART19: anti-CD19 CAR T cell. CART19-BCL2(WT): BCL-2(WT) overexpressing anti-CD19 CAR T cell.
All data represent mean±SD.
To investigate this hypothesis, the expansion and persistence of CART19 cells in the peripheral blood of NSG mice treated with CART19 plus venetoclax or CART19 alone was analyzed using flow cytometry. […] To test whether prolonged exposure to venetoclax leads to CART cell toxicity, an in vitro venetoclax toxicity assay was performed using CART cells manufactured from 8 different T cell donors. […] In order to discern whether the reduced survival was due to increased apoptosis or reduction of proliferation, the caspase 3/7 activity in CART19 was assessed in the presence or absence of venetoclax. […]

In the case of `CC1(C)CCC(CN2CCN(c3ccc(C(=O)NS(=O)(=O)c4ccc(NCC5CCOCC5)c([N+](=O)[O-])c4)c(Oc4cnc5[nH]ccc5c4)c3)CC2)=C(c2ccc(Cl)cc2)C1` [venetoclax], the IC50 in the data set with MINO [1] (Homo sapiens, MINO, 48 hours, read-out: half-maximal inhibitory concentration (IC50)) stood at 68.2 nM; in the data set on NALM6 [2] it was 1300 nM; in the data set with OCI-Ly18 it was 18.5 nM. Also, the “IC50 for MINO relative to OCI-Ly18” value in the data set with MINO [1] (MINO vs OCI-Ly18) is 5 fold. In addition, the “Toxicity to CART cells in vivo” value in the data set with MINO [3] is “toxic to CART19”. Moreover, the “Mice showing tumor relapse” value in the data set on NALM6 [4] was 40%.
